The source of these data is ChEMBL document CHEMBL1148067, “Khusimol, a non-peptide ligand for vasopressin V1a receptors” (J Nat Prod, 1994).

Test [1] has as its target Vasopressin V1a receptor (Homo sapiens, UniProt P37288). The test is described as follows: Binding affinity to vasopressin V1a receptor.
Test [2] concerns the target Vasopressin V1a receptor (Rattus norvegicus) (UniProt P30560). The test is described as follows: Displacement of [3H]AVP from vasopressin V1a receptor in rat liver membrane at 50 uM by competitive displacement assay. It counts as cell membranes.
Test [3] has as its target T1, Vasopressin V1a receptor (Rattus norvegicus, UniProt P30560). The test is described as follows: Displacement of [3H]AVP from vasopressin V1a receptor in rat liver membrane. It counts as cell membranes.
In test [4] the target is T1, Vasopressin V1a receptor. Kind of test: Displacement of [3H]AVP from vasopressin V1a receptor in rat liver membrane by competitive displacement assay. It counts as cell membranes.
For test [5], the target named is Vasopressin V1a receptor (Rattus norvegicus) (UniProt P30560). The test is described as follows: Displacement of [3H]AVP from vasopressin V1a receptor in rat liver membrane at 25 uM by competitive displacement assay. It counts as cell membranes.

Activity calls are given as the source filed them. The rule behind the calls is not given here.

T1 sequence (P30560 whole entry): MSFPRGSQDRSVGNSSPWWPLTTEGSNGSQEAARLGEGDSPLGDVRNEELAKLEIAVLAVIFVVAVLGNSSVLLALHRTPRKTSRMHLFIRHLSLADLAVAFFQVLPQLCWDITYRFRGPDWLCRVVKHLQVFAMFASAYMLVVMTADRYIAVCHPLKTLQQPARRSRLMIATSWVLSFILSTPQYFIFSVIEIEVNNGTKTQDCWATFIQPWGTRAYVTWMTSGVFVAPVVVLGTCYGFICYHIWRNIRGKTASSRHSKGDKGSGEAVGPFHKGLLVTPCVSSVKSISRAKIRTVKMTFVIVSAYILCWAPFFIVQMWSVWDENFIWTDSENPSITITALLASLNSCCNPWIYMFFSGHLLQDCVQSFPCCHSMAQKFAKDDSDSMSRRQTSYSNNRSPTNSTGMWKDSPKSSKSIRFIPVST
Chain of Vasopressin V1a receptor (Rattus norvegicus) (P30560 whole entry, looked up): as the sequence (P30560 whole entry) above
Chain of Vasopressin V1a receptor (Homo sapiens, UniProt P37288) (P37288 whole entry): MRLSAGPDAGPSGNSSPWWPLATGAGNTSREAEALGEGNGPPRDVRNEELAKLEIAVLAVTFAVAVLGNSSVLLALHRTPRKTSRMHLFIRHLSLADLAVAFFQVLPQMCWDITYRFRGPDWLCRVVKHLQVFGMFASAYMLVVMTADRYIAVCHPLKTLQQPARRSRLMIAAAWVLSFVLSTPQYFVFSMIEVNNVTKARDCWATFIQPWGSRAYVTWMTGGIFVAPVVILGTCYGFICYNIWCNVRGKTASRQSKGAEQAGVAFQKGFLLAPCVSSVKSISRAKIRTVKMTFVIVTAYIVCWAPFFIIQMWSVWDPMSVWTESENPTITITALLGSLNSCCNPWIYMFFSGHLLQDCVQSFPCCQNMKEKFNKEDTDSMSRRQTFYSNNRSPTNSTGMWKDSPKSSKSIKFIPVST

Take `CC(=O)NCCCOc1ccc(C(=O)N2CCC(N3C(=O)CCc4ccccc43)CC2)cc1`: the Ki at Vasopressin V1a receptor [1] was determined as 0.35 µM.

`C=C1[C@H]2CC[C@H](CO)[C@@]23CC[C@H](C3)C1(C)C` [KHUSIMOL]: the inhibition entry in test [2] and in test [5] was “Active” in each case. At Vasopressin V1a receptor [3], this compound yielded an IC50 of 125 µM. The Ki is 41 µM on Vasopressin V1a receptor [3] and 53 µM at Vasopressin V1a receptor [4].
